One assay deals with Acetylcholinesterase (Homo sapiens, UniProt P22303). Briefly: Inhibition of human erythrocyte AChE using acetylthiocholine iodide as substrate by visible spectrophotometry.
Another assay addresses Cholinesterase (Homo sapiens, UniProt P06276). Nature of the assay: Inhibition of human serum BChE using butyrylthiocholine iodide as substrate by visible spectrophotometry.

Here are results for eight compounds from ChEMBL document CHEMBL3217435, “Unfolded and macrocyclic ammonium derivatives of diterpenoids steviol and isosteviol having choline moieties. Synthesis and inhibitory activities toward acetylcholine- and butyrylcholinesterases” (Medchemcomm, 2012).

pIC50: −log10 of the molar value.

As a reminder, the pIC50 is the negative decadic logarithm of the IC50, by convention in mol/L. A lower pIC50 goes with a large IC50.

Cholinesterase, sequence (P06276 whole entry): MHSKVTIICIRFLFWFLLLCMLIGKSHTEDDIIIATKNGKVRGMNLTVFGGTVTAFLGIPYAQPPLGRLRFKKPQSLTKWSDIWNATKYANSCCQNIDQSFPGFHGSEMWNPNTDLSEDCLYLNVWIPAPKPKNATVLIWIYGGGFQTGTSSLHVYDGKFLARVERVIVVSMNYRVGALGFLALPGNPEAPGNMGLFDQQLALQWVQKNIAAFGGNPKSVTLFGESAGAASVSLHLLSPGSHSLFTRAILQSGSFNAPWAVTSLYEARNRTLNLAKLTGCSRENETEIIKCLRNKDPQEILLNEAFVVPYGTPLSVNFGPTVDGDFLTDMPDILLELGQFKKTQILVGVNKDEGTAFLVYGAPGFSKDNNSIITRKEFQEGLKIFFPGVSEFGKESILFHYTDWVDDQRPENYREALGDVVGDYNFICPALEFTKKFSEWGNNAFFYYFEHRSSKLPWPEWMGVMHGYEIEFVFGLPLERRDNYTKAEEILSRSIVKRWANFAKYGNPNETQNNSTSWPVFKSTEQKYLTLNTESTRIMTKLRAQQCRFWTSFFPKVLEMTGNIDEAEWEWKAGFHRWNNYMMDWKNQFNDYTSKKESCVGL
Acetylcholinesterase, sequence (P22303 whole entry): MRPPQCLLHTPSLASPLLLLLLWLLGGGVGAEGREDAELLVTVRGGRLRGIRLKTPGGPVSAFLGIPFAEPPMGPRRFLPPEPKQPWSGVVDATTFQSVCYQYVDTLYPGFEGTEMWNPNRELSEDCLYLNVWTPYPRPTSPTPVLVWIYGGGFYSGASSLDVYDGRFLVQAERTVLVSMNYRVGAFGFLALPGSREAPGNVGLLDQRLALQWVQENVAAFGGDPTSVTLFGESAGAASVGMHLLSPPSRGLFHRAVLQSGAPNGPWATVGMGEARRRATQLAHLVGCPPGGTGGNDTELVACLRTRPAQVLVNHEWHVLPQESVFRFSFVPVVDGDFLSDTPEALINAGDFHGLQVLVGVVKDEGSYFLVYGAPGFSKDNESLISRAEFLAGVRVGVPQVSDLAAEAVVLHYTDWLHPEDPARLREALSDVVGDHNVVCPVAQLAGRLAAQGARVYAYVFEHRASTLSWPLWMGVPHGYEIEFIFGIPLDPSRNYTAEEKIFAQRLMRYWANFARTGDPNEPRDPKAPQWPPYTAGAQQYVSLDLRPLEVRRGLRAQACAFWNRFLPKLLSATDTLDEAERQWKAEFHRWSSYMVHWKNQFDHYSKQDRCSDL

With `C[C@@]12CC[C@@H]3[C@@](CC[C@H]4[C@@]3(C)CCC[C@@]4(C)C(=O)OCC[N+](C)(C)C)(CC1=O)C2`, the negative-log IC50 (pIC50) at Acetylcholinesterase is 3.82; at Cholinesterase, 4.52.

Consider `C[C@@]12CC[C@@H]3[C@@](CC[C@H]4[C@@]3(C)CCC[C@@]4(C)C(=O)OCC[N+](C)(C)Cc3ccccc3)(CC1=O)C2`, for which the pIC50 on Acetylcholinesterase was 4.52; against Cholinesterase, 5.17.

In the case of `C[C@@]12CC[C@@H]3[C@@](CC[C@H]4[C@@]3(C)CCC[C@@]4(C)C(=O)OCC[N+](C)(C)CCCCCCCCCC[N+](C)(C)CCOC(=O)[C@]3(C)CCC[C@@]4(C)[C@@H]5CC[C@@]6(C)C[C@]5(CC[C@@H]43)CC6=O)(CC1=O)C2`, the pIC50 on Acetylcholinesterase was 4.06; on Cholinesterase it was 4.19.

Turning to `C[C@@]12CC[C@@H]3[C@@](CC[C@H]4[C@@]3(C)CCC[C@@]4(C)C(=O)OCC[N+](C)(C)CCCCCCCCCCCC[N+](C)(C)CCOC(=O)[C@]3(C)CCC[C@@]4(C)[C@@H]5CC[C@@]6(C)C[C@]5(CC[C@@H]43)CC6=O)(CC1=O)C2`, the pIC50 was 5.66 at Acetylcholinesterase and 5.00 against Cholinesterase.

With `C[C@@]12CC[C@@H]3[C@]4(CC[C@H]5[C@@]3(C)CCC[C@@]5(C)C(=O)OCC[N+](C)(C)CCCCCCCCC[N+](C)(C)CCOC(=O)[C@]3(C)CCC[C@@]5(C)[C@@H]6CC[C@@]7(C)C[C@]6(CC[C@@H]53)C[C@H]7OC(=O)CCCCCCCCC(=O)O[C@@H]1C4)C2`, the negative logarithm of the IC50 (pIC50) against Acetylcholinesterase was 5.30; against Cholinesterase, 4.22.

Regarding `CC[N+](CC)(CC)CCOCCOCCOC(=O)[C@]1(C)CCC[C@@]2(C)[C@@H]3CC[C@@]4(C)C[C@]3(CC[C@@H]21)CC4=O`, the negative logarithm of the IC50 (pIC50) against Acetylcholinesterase is 4.10; against Cholinesterase it was below 3.00.

Consider `C[C@H]1C[C@@]23CC[C@H]4[C@@](C)(CCC[C@@]4(C)C(=O)OCC[N+](C)(C)C)[C@@H]2CC[C@]1(Cl)C3`, for which the values for the pIC50 against Acetylcholinesterase and against Cholinesterase were 4.47 and 5.38, respectively.

`C[C@H]1C[C@@]23CC[C@H]4[C@@](C)(CCC[C@@]4(C)C(=O)OCC[N+](C)(C)Cc4ccccc4)[C@@H]2CC[C@]1(Cl)C3`: the pIC50 on Acetylcholinesterase is 5.05; against Cholinesterase, 5.80.
